The test concerns the target T1, PDE5A1 (Homo sapiens, UniProt O76074).
T1 construct: from tissue; host or cells: human platelets from fresh donor blood (10,000 x g supernatant of sonicated lysate)
The experiment in a line: Inhibition of type 5 phosphodiesterase (PDE5) activity, modified SPA test with human platelet lysate. The format is biochemical. Particulars: 0.5 μM cGMP, read-out: PDE5A1 inhibitory values [measured as −log IC50 (mol/l)] (converted). A digest of the protocol:
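Enzyme source is lysate from human platelets (10,000 g supernatant). Compound preincubated 5 min at 37° C in Tris pH 7.4 containing 1 μM motapizone and 10 nM of a PDE2 inhibitor. Reaction started with 0.5 μM cGMP ([3H] tracer) and run 15 min; SPA read-out, IC50 by non-linear regression.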

Turning to `Cc1[nH]c2c(-c3cc(F)ccc3OCC3CC3)ncnc2c1C(=O)N[C@@H]1CCN(C(=O)CO)C1` [Example F28, 4-[2-(Cyclopropylmethoxy)-5-fluorophenyl]-N-[(3R)-1-(hydroxyacetyl)pyrrolidin-3-yl]-6-methyl-5H-pyrrolo[3,2-d]pyrimidine-7-carboxamide], the IC50 is 1 to 10 nM. As for `Cc1[nH]c2c(-c3cc(F)ccc3OCC3CC3)ncnc2c1C(=O)N[C@@H]1CCN(C(=O)[C@H](C)O)C1` [Example F29, 4-[2-(Cyclopropylmethoxy)-5-fluorophenyl]-N-{(3R)-1-[(2S)-2-hydroxypropanoyl]pyrrolidin-3-yl}-6-methyl-5H-pyrrolo[3,2-d]pyrimidine-7-carboxamide], the figure is 1 to 10 nM; as for `CCOc1ccc(F)cc1-c1ncnc2c(C(=O)NC3CCN(C(=O)CO)CC3)c(C)[nH]c12` [Example F32], 1 to 10 nM.

As to `CCOc1ccc(F)cc1-c1ncnc2c(C(=O)NC3CCN(C(=O)[C@H](C)O)CC3)c(C)[nH]c12` [Example F33, 4-(2-Ethoxy-5-fluorophenyl)-N-{1-[(2S)-2-hydroxypropanoyl]piperidin-4-yl}-6-methyl-5H-pyrrolo[3,2-d]pyrimidine-7-carboxamide], the IC50 is 1 to 10 nM.

For the compound `COc1ccc(-c2ncnc3c(C(=O)NC4CCN(C(=O)CO)CC4)c(C)[nH]c23)c(OCC2CC2)c1` [Example F34, 4-[2-(Cyclopropylmethoxy)-4-methoxyphenyl]-N-(1-glycoloylpiperidin-4-yl)-6-methyl-5H-pyrrolo[3,2-d]pyrimidine-7-carboxamide], the IC50 was less than 1 nM.

`COc1ccc(-c2ncnc3c(C(=O)NC4CCN(C(=O)[C@H](C)O)CC4)c(C)[nH]c23)c(OCC2CC2)c1` [Example F35, 4-[2-(Cyclopropylmethoxy)-4-methoxyphenyl]-N-{1-[(2S)-2-hydroxypropanoyl]piperidin-4-yl}-6-methyl-5H-pyrrolo[3,2-d]pyrimidine-7-carboxamide]: the IC50 is less than 1 nM. On to `COc1ccc(-c2ncnc3c(C(=O)N[C@H]4CC[C@H](NC(=O)[C@H](C)O)CC4)c(C)[nH]c23)c(OCC2CC2)c1` [Example F36, 4-[2-(Cyclopropylmethoxy)-4-methoxyphenyl]-N-(trans-4-{[(2S)-2-hydroxypropanoyl]amino}cyclohexyl)-6-methyl-5H-pyrrolo[3,2-d]pyrimidine-7-carboxamide], for which the IC50 was less than 1 nM. In the case of `COc1ccc(-c2ncnc3c(C(=O)N[C@@H]4CCN(C(=O)CO)C4)c(C)[nH]c23)c(OCC2CC2)c1` [Example F37, 4-[2-(Cyclopropylmethoxy)-4-methoxyphenyl]-N-[(3R)-1-glycoloylpyrrolidin-3-yl]-6-methyl-5H-pyrrolo[3,2-d]pyrimidine-7-carboxamide], the IC50 was less than 1 nM. With `COc1ccc(-c2ncnc3c(C(=O)N[C@@H]4CCN(C(=O)[C@H](C)O)C4)c(C)[nH]c23)c(OCC2CC2)c1` [Example F38, 4-[2-(Cyclopropylmethoxy)-4-methoxyphenyl]-N-{(3R)-1-[(2S)-2-hydroxypropanoyl]pyrrolidin-3-yl}-6-methyl-5H-pyrrolo[3,2-d]pyrimidine-7-carboxamide], the IC50 is less than 1 nM. As for `COc1ccc(OCC2CC2)c(-c2ncnc3c(C(=O)N[C@@H]4CCN(C(=O)CO)C4)c(C)[nH]c23)c1` [Example F47, 4-[2-(cyclopropylmethoxy)-5-methoxyphenyl]-N-[(3R)-1-glycoloylpyrrolidin-3-yl]-6-methyl-5H-pyrrolo[3,2-d]pyrimidine-7-carboxamide], the figure is less than 1 nM; as for `COc1ccc(OCC2CC2)c(-c2ncnc3c(C(=O)N[C@@H]4CCN(C(=O)[C@H](C)O)C4)c(C)[nH]c23)c1` [Example F48, 4-[2-(cyclopropylmethoxy)-5-methoxyphenyl]-N-{(3R)-1-[(2S)-2-hydroxypropanoyl]pyrrolidin-3-yl}-6-methyl-5H-pyrrolo[3,2-d]pyrimidine-7-carboxamide], less than 1 nM; as for `CCOc1ccc(C(F)(F)F)cc1-c1ncnc2c(C(=O)NC3CCN(C(=O)CO)CC3)c(C)[nH]c12` [Example F63, 4-[2-Ethoxy-5-(trifluoromethyl)phenyl]-N-[1-(hydroxyacetyl)piperidin-4-yl]-6-methyl-5H-pyrrolo[3,2-d]pyrimidine-7-carboxamide], less than 1 nM.

As for `CCOc1ccc(C(F)(F)F)cc1-c1ncnc2c(C(=O)NC3CCN(C(=O)[C@H](C)O)CC3)c(C)[nH]c12` [Example F64, 4-[2-Ethoxy-5-(trifluoromethyl)phenyl]-N-{1-[(2S)-2-hydroxypropanoyl]piperidin-4-yl}-6-methyl-5H-pyrrolo[3,2-d]pyrimidine-7-carboxamide], the IC50 was less than 1 nM. The same measure for `COc1cc(-c2ncnc3c(C(=O)NC4CCN(C(=O)CO)CC4)c(C)[nH]c23)c(OCC2CC2)cc1F` [Example F65, 4-[2-(Cyclopropylmethoxy)-4-fluoro-5-methoxyphenyl]-N-(1-glycoloylpiperidin-4-yl)-6-methyl-5H-pyrrolo[3,2-d]pyrimidine-7-carboxamide]: less than 1 nM; for `COc1cc(-c2ncnc3c(C(=O)NC4CCN(C(=O)[C@H](C)O)CC4)c(C)[nH]c23)c(OCC2CC2)cc1F` [Example F66, 4-[2-(Cyclopropylmethoxy)-4-fluoro-5-methoxyphenyl]-N-{1-[(2S)-2-hydroxypropanoyl]piperidin-4-yl}-6-methyl-5H-pyrrolo[3,2-d]pyrimidine-7-carboxamide]: less than 1 nM; for `COc1cc(-c2ncnc3c(C(=O)N[C@H]4CC[C@H](NC(=O)CO)CC4)c(C)[nH]c23)c(OCC2CC2)cc1F` [Example F67, 4-[2-(Cyclopropylmethoxy)-4-fluoro-5-methoxyphenyl]-N-[trans-4-(glycoloylamino)cyclohexyl]-6-methyl-5H-pyrrolo[3,2-d]pyrimidine-7-carboxamide]: less than 1 nM.

With `COc1cc(-c2ncnc3c(C(=O)N[C@H]4CC[C@H](NC(=O)[C@H](C)O)CC4)c(C)[nH]c23)c(OCC2CC2)cc1F` [Example F68, 4-[2-(Cyclopropylmethoxy)-4-fluoro-5-methoxyphenyl]-N-(trans-4-{[(2S)-2-hydroxypropanoyl]amino}cyclohexyl)-6-methyl-5H-pyrrolo[3,2-d]pyrimidine-7-carboxamide], the IC50 is less than 1 nM.

As for `COc1cc(-c2ncnc3c(C(=O)N[C@H]4CC[C@@H](NC(=O)CO)CC4)c(C)[nH]c23)c(OCC2CC2)cc1F` [Example F69, 4-[2-(Cyclopropylmethoxy)-4-fluoro-5-methoxyphenyl]-N-[cis-4-(glycoloylamino)cyclohexyl]-6-methyl-5H-pyrrolo[3,2-d]pyrimidine-7-carboxamide], the IC50 was less than 1 nM. The same measure for `COc1cc(-c2ncnc3c(C(=O)N[C@H]4CC[C@@H](NC(=O)[C@H](C)O)CC4)c(C)[nH]c23)c(OCC2CC2)cc1F` [Example F70, 4-[2-(Cyclopropylmethoxy)-4-fluoro-5-methoxyphenyl]-N-(cis-4-{[(2S)-2-hydroxypropanoyl]amino}cyclohexyl)-6-methyl-5H-pyrrolo[3,2-d]pyrimidine-7-carboxamide]: less than 1 nM; for `Cc1cc(-c2ncnc3c(C(=O)NC4CCN(C(=O)[C@H](C)O)CC4)c(C)[nH]c23)c(OCC2CC2)cc1F` [Example F76, 4-[2-(Cyclopropylmethoxy)-4-fluoro-5-methylphenyl]-N-{1-[(2S)-2-hydroxypropanoyl]piperidin-4-yl}-6-methyl-5H-pyrrolo[3,2-d]pyrimidine-7-carboxamide]: less than 1 nM.

Values taken from patent publication US9376442B2, “Methylpyrrolopyrimidinecarboxamides” (Takeda GmbH, priority 2009, dated 2016).
